Test results as given in patent US20260015357A1, “MODULATORS OF NLRP3 INFLAMMASOME AND RELATED PRODUCTS AND METHODS” (Neumora Therapeutics, Inc., priority 2022, published 2026).

Experiments:
NLRP3 inflammasome = target: T1, NLRP3 inflammasome (Homo sapiens, UniProt Q96P20); assay: NLRP3 inflammasome activation in LPS-primed, nigericin-activated THP1 macrophages, IL-1β AlphaLISA; format: cell-based; conditions: PMA-differentiated, 1 hr compound, Nigericin 6.7 uM 3 hrs, IL-1β in supernatant
T1 construct: host or cells: THP1 human acute monocytic leukemia cells, PMA-differentiated, LPS-primed
Experimental: (§1) NLRP3 Inflammasome Activation and Cell Viability Assessment in THP1 Macrophages
(§2) THP1—Human acute monocytic leukemia cells were cultured (ATCC, cat #TIB-202) in Gibco RPMI-1640 medium (ThermoFisher cat #72400054) supplemented with 10% Heat Inactivated FBS at density between 3-8×10^5 viable cells/mi. The cells were then subcultured when the cell concentration reached 8×10^5 cells/mL (every 2-3 days).
(§3) The parameter wells were filled with 50 ul PBS and incubated at 37° C., 5% CO2 for 48 hrs.
(§4) After 48 hrs incubation, the PMA containing media was removed, and changed for 40 ul/well of fresh DMEM, 10% FBS, 1× GlutaMax and incubated at 37° C., 5% CO2 for 24 hrs.
(§5) The following day the cells were primed with LPS (E. coli) (Sigma, cat #L3129) […] in DMEM, 10% FBS, 1× GlutaMax for 3 hrs at 37° C., 5% CO2.
(§6) Following the LPS priming step, the cells were treated with compounds at 10 uM top final concentration, 1:4 dilution, 8 times: (10 uM, 2.5 uM, 0.625 uM, 0.156 uM, 0.039 uM, 0.0097 uM, 0.0024 uM, 0.0006 uM). DMSO was used as a vehicle control, and MCC950 (InvivoGen, cat #inh-mcc) was used at 1 uM as a positive control, and incubated for 1 hrs at 37° C., 5% CO2.
(§7) Following the 1 hr compound incubation, the NLRP3 inflammasome activation step was conducted by treating cells with Nigericin (InvivoGen, cat #tlrl-nig) at 6.7 uM final concentration for 3 hrs at 37° C., 5% CO2.
(§8) Thereafter, 30 ul samples of cells' supernatants were collected for cytokine analysis which was conducted on Hu IL-1β AlphaLISA (Perkin Elmer, cat #AL220C) and Hu IL-6 AlphaLISA (Perkin Elmer, cat #AL220C). The cells' viability was assessed by performing CellTiter-Glo Luminescent Assay (Promega, cat #G7572) according to the manufacturer's protocol.

IL-6 = IL-6 in supernatants of LPS-primed, nigericin-treated THP1 macrophages, Hu IL-6 AlphaLISA; format: cell-based; conditions: Homo sapiens, THP-1, PMA-differentiated, 1 hr compound, Nigericin 6.7 uM 3 hrs, IL-6 in supernatant
Experimental: as §1, §2, §3, §4, §5, §6, §7, §8

T1 sequence (Q96P20 whole entry): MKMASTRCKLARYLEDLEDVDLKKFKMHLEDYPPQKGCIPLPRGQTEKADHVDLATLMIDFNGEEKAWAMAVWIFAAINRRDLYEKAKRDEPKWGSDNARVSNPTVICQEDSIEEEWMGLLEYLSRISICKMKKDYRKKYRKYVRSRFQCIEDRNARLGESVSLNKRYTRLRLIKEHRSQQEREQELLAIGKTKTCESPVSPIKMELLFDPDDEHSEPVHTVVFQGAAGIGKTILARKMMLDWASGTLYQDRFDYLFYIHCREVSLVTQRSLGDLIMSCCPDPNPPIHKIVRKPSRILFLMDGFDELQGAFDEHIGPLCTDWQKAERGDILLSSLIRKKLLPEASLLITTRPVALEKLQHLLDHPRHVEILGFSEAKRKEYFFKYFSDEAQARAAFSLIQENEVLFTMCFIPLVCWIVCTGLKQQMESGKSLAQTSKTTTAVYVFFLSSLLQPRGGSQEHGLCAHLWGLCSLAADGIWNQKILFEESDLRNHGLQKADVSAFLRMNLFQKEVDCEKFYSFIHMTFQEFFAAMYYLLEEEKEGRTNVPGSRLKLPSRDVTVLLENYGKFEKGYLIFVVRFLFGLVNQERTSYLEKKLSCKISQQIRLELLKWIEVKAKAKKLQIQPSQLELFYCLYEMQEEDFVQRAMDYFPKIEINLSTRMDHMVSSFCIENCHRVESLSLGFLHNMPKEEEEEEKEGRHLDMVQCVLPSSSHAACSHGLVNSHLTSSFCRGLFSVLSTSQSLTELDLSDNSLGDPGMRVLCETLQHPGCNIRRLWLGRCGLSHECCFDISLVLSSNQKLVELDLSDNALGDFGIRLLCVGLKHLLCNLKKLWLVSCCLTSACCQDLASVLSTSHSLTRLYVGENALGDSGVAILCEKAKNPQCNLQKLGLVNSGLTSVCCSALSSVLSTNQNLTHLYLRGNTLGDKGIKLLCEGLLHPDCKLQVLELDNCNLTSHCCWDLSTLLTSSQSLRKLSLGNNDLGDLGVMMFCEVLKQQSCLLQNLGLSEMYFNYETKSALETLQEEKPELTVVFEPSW

Row | SMILES | IC50 (NLRP3 inflammasome) | IC50 (IL-6)
1 | N#Cc1ccc(-c2nnc(N[C@@H]3CCCN(CCO)C3)c3sncc23)c(O)c1 [Compound 151] | < 0.01 µM | ≥ 10 µM
2 | COCCN1CCC[C@@H](Nc2nnc(-c3ccc(C#N)cc3O)c3cnsc23)C1 [Compound 154] | 0.01 to 0.1 µM | ≥ 10 µM
3 | CN1CCC[C@@H](Nc2nnc(-c3ccc(C#N)cc3O)c3c(Cl)cn(C)c23)C1 [Compound 157] | 0.1 to 0.5 µM | ≥ 10 µM
4 | Cn1ccc2c(-c3ccc(C(F)(F)F)cc3)nnc(N[C@@H]3CCCN(S(C)(=O)=O)C3)c21 [Compound 159] | 1 to 10 µM | ≥ 10 µM
5 | Cn1ccc2c(-c3ccc(C#N)cc3O)nnc(N[C@@H]3CCCN(c4ccccc4)C3)c21 [Compound 161] | ≥ 10 µM | ≥ 10 µM
6 | CN1CCC[C@@H](Nc2nnc(-c3ncc(C#N)cc3O)c3cc(Cl)n(C)c23)C1 [Compound 165] | < 0.01 µM | ≥ 10 µM
7 | CN1CCC[C@@H](Nc2nnc(-c3ncc(C(F)(F)F)cc3O)c3cnn(C)c23)C1 [Compound 166] | 0.01 to 0.1 µM | ≥ 10 µM
8 | COc1cc(C)ccc1-c1nnc(N[C@@H]2CCCN(C)C2)c2c1cnn2C [Compound 167] | 1 to 10 µM | ≥ 10 µM
9 | CN1CCC[C@@H](Nc2nnc(-c3ncc(C(F)(F)F)cc3O)c3ccn(C)c23)C1 [Compound 168] | 1 to 10 µM | ≥ 10 µM

The remaining lines, values ahead:

Row | IC50 (NLRP3 inflammasome) | IC50 (IL-6) | SMILES
10 | ≥ 10 µM | ≥ 10 µM | Cn1ccc2c(-c3ccc(C#N)cc3O)nnc(N[C@H]3CN(CCF)CC(F)(F)C3)c21 [Compound 149]
11 | 0.01 to 0.1 µM | ≥ 10 µM | Cn1ccc2c(-c3ccc(C#N)cc3O)nnc(N[C@@H]3CCCN(CC(C)(C)O)C3)c21 [Compound 152]
12 | 0.01 to 0.1 µM | ≥ 10 µM | COCCN1CCC[C@@H](Nc2nnc(-c3ccc(C#N)cc3O)c3ccn(C)c23)C1 [Compound 153]
13 | 0.1 to 0.5 µM | ≥ 10 µM | CNCCN1CCC[C@@H](Nc2nnc(-c3ccc(C#N)cc3O)c3ccn(C)c23)C1 [Compound 155]
14 | 0.01 to 0.1 µM | ≥ 10 µM | CN(C)CCN1CCC[C@@H](Nc2nnc(-c3ccc(C#N)cc3O)c3ccn(C)c23)C1 [Compound 156]
15 | 0.01 to 0.1 µM | 5 to 10 µM | Cn1ccc2c(-c3ccc(C#N)cc3O)nnc(N[C@@H]3CCCNC3)c21 [Compound 158]
16 | 1 to 10 µM | ≥ 10 µM | Cn1ccc2c(-c3ccc(C#N)cc3O)nnc(N[C@@H]3CCCN(C4COC4)C3)c21 [Compound 160]
17 | 1 to 10 µM | ≥ 10 µM | Cn1ccc2c(-c3ccc(C#N)cc3O)nnc(N[C@@H]3CCCN(c4ccncc4)C3)c21 [Compound 162]
18 | ≥ 10 µM | ≥ 10 µM | Cn1ccc2c(-c3ccc(C#N)cc3O)nnc(N[C@@H]3CCCN(c4cccnc4)C3)c21 [Compound 163]
19 | 0.1 to 0.5 µM | ≥ 10 µM | Cn1ccc2c(-c3ccc(C#N)cc3O)nnc(N[C@@H]3CCCN(CCN)C3)c21 [Compound 164]
